Results reported in PMC8156256, “Use of Half-Generation PAMAM Dendrimers (G0.5–G3.5) with Carboxylate End-Groups to Improve the DACHPtCl2 and 5-FU Efficacy as Anticancer Drugs” (Molecules, 2021).
Where two headings read alike, the source gives them in different places.

How the values were obtained:
[1] = test system: A2780CisR cisplatin-resistant ovarian cancer cells; assay: MTT cytotoxicity assay, A2780cisR; type: cell-based, human; settings: for IC50: MTT, 72 h, for 5-FU loaded systems MW includes the estimated number of 5-FU molecules, read-out: A2780cisR IC50 ± SD; for Resistance Factor (Rf): IC50 A2780CisR / IC50 A2780
Experimental: (§1) Several human cell lines were used in the cytotoxicity evaluation studies, namely: ovarian cancer cells (A2780), cisplatin-resistant ovarian cancer cells (A2780CisR), breast cancer cells (MCF-7), colorectal adenocarcinoma cells (CACO-2), and fibroblast cells (BJ, a non-cancer cell line). All cell lines were cultured in 96-well plates at a seeding density of 1 × 10^4 cells per well with a specific culture medium supplemented with 10% (v/v) fetal bovine serum (FBS) and 1% (v/v) antibiotic–antimycotic solution (AA, 100× solution) at 37 °C, in a humidified atmosphere and 5% CO2. Specific cell culture media were as follows: the A2780 and A2780CisR cell lines were cultured in RPMI 1640 medium supplemented with L-glutamine (2 mM), and 1% (w/v) of cisplatin (100 mM) in the case of A2780CisR cells (cisplatin was only used in the subculturing process before the cytotoxicity assays); the MCF-7 cell line was cultured in RPMI 1640 medium supplemented with 1 mM sodium pyruvate, 1% (v/v) nonessential amino acids (NEAA, 100× solution), and human insulin 3.3 µg/mL; the CACO-2 cell line was cultured in MEM medium supplemented with 1% (v/v) NEAA; the BJ cell line was cultured in D-MEM medium. After 24 h in culture, cells were incubated with the compounds under testing prepared in nuclease-free water. In all cases, 100 µL of the compound solution was used for a total volume of 200 µL in the well. The metallodendrimers cytotoxicity was evaluated using all the mentioned cell lines at the concentrations of 0.01, 0.03, 0.1, 0.5, 1, 2.5, 5, and 10 µM. Pristine anionic PAMAM dendrimers (G0.5–3.5) were used as controls. The cytotoxicity of the metallodendrimer G2.5COO(DACHPt)16/5-FU was evaluated using A2780CisR, and CACO-2 cells at the concentrations of 0.01, 0.2, 1, 5, 10 and 20 µg/mL, and G2.5(COONa)32/5-FU and free 5-FU were used as controls. After 72 h of incubation with the compounds under testing, the culture medium was replaced by new culture medium containing 10% (v/v) of a MTT (3-(4,5-dimethylthiazol-2-yl)-2,5-diphenyltetrazolium bromide) solution (0.5 mg/mL). After 3 h of incubation, the culture medium was aspirated, and the formed formazan crystals were dissolved in 100 µL of DMSO. Absorbance intensity was measured at 550 nm in a microplate reader (Victor3 1420, Perkin Elmer, Waltham, MA, USA). Three independent experiments with three replicas each were carried out. The concentration that inhibited 50% of the cellular metabolic activity (IC50) was determined by linear interpolation between the two experimental points closer to the point correspondent to 50% of the control’s cellular metabolic activity. Results are presented as the mean ± standard deviation (SD).

red blood cells = assay: Hemotoxicity (hemolysis) assay, cyanmethemoglobin method; type: cell-based; settings: human blood; for hemolysis percentage (release of hemoglobin): 3 h, 37 °C, 5 µM
Experimental: Human blood from healthy donors was collected in tubes containing EDTA and used to evaluate the compounds’ hemotoxicity under testing towards red blood cells by the cyanmethemoglobin method. The total hemoglobin concentration in the original blood was determined starting from a 250-fold dilution of blood in cyanmethemoglobin reagent (the C reagent was prepared in an amber bottle with 50 mg of potassium ferricyanide, 12.5 mg of potassium cyanide, and 35 mg of potassium dihydrogen phosphate in 250 mL of distilled water with 250 µL of Triton-X; its pH was adjusted to 7.4). A standard curve for hemoglobin was then prepared with hemoglobin from bovine blood (Figure S34). Briefly, a stock solution of the protein (1.5 mg/mL) was first prepared in C reagent, from which serial dilutions were performed to obtain standards of known concentration (in the range 0.20 to 1.4 mg/mL). Absorbance was then measured at 550 nm, and the C reagent was used as blank. The total hemoglobin concentration was determined using this standard curve, taking into consideration the initial dilution. For hemotoxicity evaluation of the compounds under testing, a 10% (v/v) blood solution was prepared in PBS (Mg^2+/Ca^2+ free). Then, 10 µL of this blood solution was added to several microtubes containing 70 µL of compound solution (at the concentrations 0.1, 1, and 5 µM); for controls, microtubes with 70 µL of distilled water (positive control) and 70 µL of PBS (negative control) were also prepared. After, the microtubes were incubated at 37 °C for 3 h and subsequently centrifuged at 3800 rpm for 10 min. In the end, 40 µL of each supernatant were transferred to 96-well plates, 160 µL of C reagent was added, and absorbance was measured at 550 nm. The concentration of hemoglobin in the supernatants was then determined using the same standard curve and considering the performed dilutions. The results are presented as a percentage of hemolysis (mean of three independent assays) ± standard deviation (SD). A Perkin Elmer VICTOR^3™ Multilabel Reader spectrophotometer was used in this assay.

[2] = test system: CACO-2 colorectal adenocarcinoma cells; assay: MTT cytotoxicity assay, CACO-2; type: cell-based, human; settings: for 5-FU loaded systems MW includes the estimated number of 5-FU molecules, read-out: CACO-2 IC50 ± SD
Experimental: All cell lines were cultured in 96-well plates at a seeding density of 1 × 10^4 cells per well with a specific culture medium supplemented with 10% (v/v) fetal bovine serum (FBS) and 1% (v/v) antibiotic–antimycotic solution (AA, 100× solution) at 37 °C, in a humidified atmosphere and 5% CO2. […] After 24 h in culture, cells were incubated with the compounds under testing prepared in nuclease-free water. In all cases, 100 µL of the compound solution was used for a total volume of 200 µL in the well. The metallodendrimers cytotoxicity was evaluated using all the mentioned cell lines at the concentrations of 0.01, 0.03, 0.1, 0.5, 1, 2.5, 5, and 10 µM. Pristine anionic PAMAM dendrimers (G0.5–3.5) were used as controls. The cytotoxicity of the metallodendrimer G2.5COO(DACHPt)16/5-FU was evaluated using A2780CisR, and CACO-2 cells at the concentrations of 0.01, 0.2, 1, 5, 10 and 20 µg/mL, and G2.5(COONa)32/5-FU and free 5-FU were used as controls. After 72 h of incubation with the compounds under testing, the culture medium was replaced by new culture medium containing 10% (v/v) of a MTT (3-(4,5-dimethylthiazol-2-yl)-2,5-diphenyltetrazolium bromide) solution (0.5 mg/mL). After 3 h of incubation, the culture medium was aspirated, and the formed formazan crystals were dissolved in 100 µL of DMSO. […] Three independent experiments with three replicas each were carried out.

[3] = test system: BJ fibroblast cells (non-cancer cell line); assay: MTT cytotoxicity assay, BJ; type: cell-based, human; settings: 72 h, read-out: BJ IC50 ± SD
Experimental: Several human cell lines were used in the cytotoxicity evaluation studies, namely: ovarian cancer cells (A2780), cisplatin-resistant ovarian cancer cells (A2780CisR), breast cancer cells (MCF-7), colorectal adenocarcinoma cells (CACO-2), and fibroblast cells (BJ, a non-cancer cell line). All cell lines were cultured in 96-well plates at a seeding density of 1 × 10^4 cells per well with a specific culture medium supplemented with 10% (v/v) fetal bovine serum (FBS) and 1% (v/v) antibiotic–antimycotic solution (AA, 100× solution) at 37 °C, in a humidified atmosphere and 5% CO2. […] The metallodendrimers cytotoxicity was evaluated using all the mentioned cell lines at the concentrations of 0.01, 0.03, 0.1, 0.5, 1, 2.5, 5, and 10 µM. […] The cytotoxicity of the metallodendrimer G2.5COO(DACHPt)16/5-FU was evaluated using A2780CisR, and CACO-2 cells at the concentrations of 0.01, 0.2, 1, 5, 10 and 20 µg/mL, and G2.5(COONa)32/5-FU and free 5-FU were used as controls. […] Absorbance intensity was measured at 550 nm in a microplate reader (Victor3 1420, Perkin Elmer, Waltham, MA, USA). […]

calf thymus DNA (CT-DNA) = assay: DNA binding study by UV-vis spectroscopy (Benesi-Hildebrand); settings: increasing CT-DNA 0-50 µM, 5 mM Tris-HCl/50 mM NaCl pH 7.4, 5 min incubation
Experimental: The stock solutions of DNA were directly prepared in this buffer. DNA purity was assessed by UV–vis spectroscopy using the absorbance values ratio at 260 nm and 280 nm (it should be between 1.8–1.9 to make sure it is sufficiently protein-free). […] The compounds and the CT-DNA were incubated for 5 min at room temperature. The absorbance was measured in a PerkinElmer UV–vis spectrometer Lambda equipment, using the buffer as blank. […] The intrinsic binding constant, Kb, of the compounds with DNA, was determined using the Benesi–Hildebrand equation [36]: A0/(A−A0) = εG/(εH-G − εG) + εG/(εH-G − εG) × 1/(Kb[DNA]), where Kb is the binding constant, [DNA] is the DNA concentration, A0 and A are the absorbance values of the free compound and compound–DNA complex, and εG and εH-G are their absorption coefficients, respectively. Binding constant values were then obtained from the ratio of the y-intercept to the slope in the plots A0/A−A0 vs. 1/[DNA]. Additionally, the Gibbs free energy (ΔG) associated with the process of DNA binding was calculated using the usual equation: ∆G = −RTlnKb, where T is the temperature in Kelvin and R the gas constant.

[4] = test system: MCF-7 breast cancer cells; assay: MTT cytotoxicity assay, MCF-7; type: cell-based, human; settings: for IC50: MTT, 72 h, read-out: MCF-7 IC50 ± SD
Experimental: as §1

[5] = test system: A2780 ovarian cancer cells; assay: MTT cytotoxicity assay, A2780; type: cell-based, human; settings: for IC50: MTT, 72 h, read-out: A2780 IC50 ± SD
Experimental: as §1

[6] = IC50 oxaliplatin / IC50 compound

Molecule | IC50 ([1]; Homo sapiens, A2780cisR) [µM] | hemolysis at 3 h (red blood cells; concentrations 0.1 and 1 µg/mL) [%] | IC50 ([2]; Homo sapiens, Caco-2, 72 h) [µM] | Resistance Factor (Rf) [1] | IC50 [1] [µM] | hemolysis percentage (release of hemoglobin) (red blood cells) | IC50 [3] [µM] | Change in Absorbance (calf thymus DNA (CT-DNA)) | IC50 [4] [µM] | IC50 [5] [µM] | Selectivity Index (SI) A2780CisR ([1]; IC50 BJ / IC50 A2780CisR) | Relative Potency (RP) A2780CisR [1, 6] | Selectivity Index (SI) MCF-7 ([4]; IC50 BJ / IC50 MCF-7) | Relative Potency (RP) MCF-7 [4, 6] | Selectivity Index (SI) A2780 ([5]; IC50 BJ / IC50 A2780) | Relative Potency (RP) A2780 [5, 6] | IC50 ([2]; 72 h) [µM]
O=c1[nH]cc(F)c(=O)[nH]1 [5-FU, 5-fluoro-1H-pyrimidine-2,4-dione] | > 154 | ~5 | > 154 | – | – | – | – | – | – | – | – | – | – | – | – | – | –
O=C1[O][Pt]2([NH][C@@H]3CCCC[C@H]3[NH]2)[O]C1=O [Oxaliplatin, [(1R,2R)-cyclohexane-1,2-diamine] (ethanedioato-O,O′)platinum(II)] | – | – | – | 7.2 | 3.5 ± 0.5 | around 12% | > 10 | Hyperchromism | > 10 | 0.48 ± 0.03 | – | – | – | – | – | – | –
trans-(R,R)-1,2-diaminocyclohexanedichloroplatinum(II) [DACHPtCl2] | – | – | – | 6.2 | 1.7 ± 0.4 | 7–10% | > 9 | Hyperchromism | 5 ± 2 | 0.3 ± 0.2 | >5.2 | 2 | >1.7 | >1.9 | >32 | 1.7 | > 10
